Test results from patent US20050119344A1, “Medium for radical treatment of tumors, inflammatory processes, fungal infections and other affections of the tissues, diagnostic and prophylactic and method of its implementation” (priority 2001, published 2005).

How the values were obtained:
[1] = test system: malign formation in the milk gland
Source text: (§1) The treatment is provided by rub in the medium with a tampon impregnated with it, directly in the tumor (by the skin ones), or in the accessible surface of the healthy tissue situated near by it. The rub in takes place repeatedly, with waiting for the absorption of the solution, until the tumor is saturated with formic acid in such a degree, that the blood in its blood-vessels coagulates and so that the tumor will be necrotized. […] By the benign tumor the treatment shall include mechanical irritation of its tissue too, with the purpose to stimulate the blood-circulation in it, by which the blood-vessels will be filled out and their surface will be enlarged on the account of the thickness of their walls. Such a treatment can be utilized, if necessary, by the malignant tumors too.
In the concrete case the treatment is applied on the spouse and respectively parent of the inventors. The women is […], with two side fibrose mastopatia. On 19 Nov. 2001 by an echographic examination has been discovered malign formation in the left breast, sector 12h, with the above mentioned dimensions and deepness, (FIG. 1 and FIG. 2). The diagnosis was confirmed through punctual biopsy. The treatment by the above-mentioned method began on 23 Nov. 2001 in the evening. […] The procedures continued three times daily in the following days.

benign human skin tumors = conditions: through rub in
Source text: as §1

[2] = test system: pathologically altered tissue; conditions: very weak solutions, in the range of 10%
Source text: By broader studies can be composed a table for the painfulness of the reaction by the different groups of tumors and other types of tissue alteration, depending on the solution concentration, the time of influence, for example by rub in and the deepness of the alteration.
The method has been applied for diagnostic of breast cancer.

[3] = test system: inflammatory processes, mushroom formations, and other pathological alterations of the tissues

SMILES: O=CO [formic acid, formic (methane) acid (HCOOH)]
- state of the tumor tissue ([1]; concluded from echography, biopsy and lack of pain by rub in): necrotized
- echographic size of the flack ([1]; echography 11 Dec. 2001 (FIG. 5)): the flack is diminished
- outcome of treatment of malign formation in the milk gland ([1]; only through rub in, formation 5.7 to 7.4 mm, about 8 mm deep): successfully implemented
- second punction biopsy, cancer cells ([1]; person, rub in three times daily from 23 Nov. 2001, biopsy 01 Dec. 2001): have not been observed cancer cells
- elimination of benign human skin tumors (benign human skin tumors): repeatedly implemented for the elimination
- reaction when hitting places with pathologically altered tissue [2]: give pain reaction
- action in inflammatory processes, mushroom formations and other tissue alterations ([3]; rub in, pulverizing, inhalations or other supply): acts very effectively and rapidly
- outcome in tooth grenolom ([3]; three cases): the extraction of the teeth was prevented
